Patent US10660789B2, “1,4-dihydropyridine derivatives with HSP modulating activity” (Richter Gedeon NYRT., priority 2011, dated 2020)
Structures can show the parent of a compound that is named as a salt.

Test system: other Hsps
Experiment: Other in vitro HSP modulating effects (Table 3)
Type: cell-based, mouse and human
Design: key: +: co-inducing activity; −: silencing activity; 0: with the experimental methods applied no other HSP modulating effects could be identified
Protocol: The Hsp co-inducing effect of the compounds on stress response was tested on B16 mouse melanoma and SHSY5Y human neuroblastoma cell lines stably transfected with Hsp promoter probing plasmids. This kind of promoter probing, using the promoter region of a given gene conjugated with fluorescent protein is used as a best and fastest test system for finding drugs which modulate the activity of the gene followed by the given promoter (Wyshocka et al., Mol. Cel. Biochem. 215:153-156, 2000).
Reporter plasmids, containing the Hsp70 and/or Hsp25 promoter conjugated to either YFP or GFP (yellow or green fluorescent protein), were stably transfected into the cells and the expression of YFP or GFP was followed by flow cytometry. Cells were either kept at 37° C. or exposed to heat shock at 42° C. for 1 hour followed by a 16 hour recovery period at 37° C. in the presence or absence of different concentrations of the test compound. After recovery the expression of YFP or GFP which is in straight correlation with the promoter activity of Hsp70 or Hsp27 genes was followed by measuring the fluorescence intensity of the cells by flow cytometry. Fluorescence intensity is in straight correlation with the amount of fluorescent protein (GFP or YFP) produced under the control of hsp promoter. The mean fluorescence intensity of YFP or GFP produced is shown as “Hsp promoter activity”.
Cells were homogenously distributed on 6-well plates in 1×10^5 cells/well density. B16-pHsp25-GFP and B16-pHsp70-YFP melanoma cells were grown in RPMI-1640 medium supplemented with 10% Fetal bovine serum (FBS), penicillin (200 units/ml), streptomycin (200 μg/ml) and 2 mM L-Glutamine. For maintaining the SH-SY5Y-pHsp25-GFP and SH-SY5YpHsp70-YFP neuroblastoma cell lines Dulbecco's modified Eagle's medium (DMEM-F-12) containing 10% FBS, 2 mM L-Glutamine, penicillin (200 units/ml), streptomycin (200 μg/ml) and MEM non-essential amino acids were used. Before the treatments both cell lines were incubated at 37° C. in a saturated humidity atmosphere containing 95% air and 5% CO2. After 24 h incubation cells were pretreated with compounds of the invention in four different concentrations (usually in 3; 10; 20 and 50 μM) 30 min before the heat shock at 42° C. for 1 h and then incubated further at 37° C. for 16 h (recovery period). After this procedure cells were trypsinized and suspensed in 500 μl serum-free DMEM-F12 medium. The changes in cells' fluorescence were detected using BD FACSCalibur flow cytometer.
SY-SY5Y and B16 cells were extracted in NP-40 lysis buffer (PBS pH 7.4, 1% protease inhibitor coctail and 1% Triton X-100). The cell extracts were then constantly agitated at 4° C. for 2 h. The cell extracts were centrifuged at 12000×g for 30 min and supernatants were saved. After the protein concentration measurement 15 μg of total protein was separated by sodium dodecyl sulfate-polyacrylamide gel electrophoresis (SDS-PAGE) under reducing conditions according to the method of Laemmli. Proteins were blotted onto PVDF membrane. The blot was incubated overnight at 4° C. in the presence of mouse α-Hsp25, α-Hsp70, α-Hsp60 és α-Hsp90 monoclonal antibodies diluted in PBS. Then, the membrane was washed three times in PBS-0.05% Tween and incubated for 1 h in peroxidase-conjugated anti-mouse IgG antibody diluted 1:50000 in PBS containing 3% non-fat dry milk. The immune complexes were detected with chemo-luminescent substrate of peroxidase according to the supplier's instructions. Images taken from the membranes were analyzed using AlphaEase FC software.
In the case of COC(=O)C1=C(C)N(C)C(C)=C(C(=O)OC)C1c1ccc(Cl)cc1 [Example 4, Dimethyl 1,2,6-trimethyl-4-(4-chlorophenyl)-1,4-dihydropyridine-3,5-dicarboxylate], the “Other in vitro effects” value is reported as 0.
With COC(=O)C1=C(C)N(C)C(C)=C(C(=O)OC)C1c1ccc(OC)cc1 [Example 6, Dimethyl 1,2,6-trimethyl-4-(4-methoxyphenyl)-1,4-dihydropyridine-3,5-dicarboxylate] the “Other in vitro effects” value was 0.
In the case of COC(=O)C1=C(CCN2CCN(C)CC2)N(C)C(CCN2CCN(C)CC2)=C(C(=O)OC)C1c1ccc(C(F)(F)F)cc1 [Example 16, Dimethyl 1-methyl-2,6-bis-[2-(4-methyl-piperazin-1-yl)-ethyl]-4-(4-trifluoromethylphenyl)-1,4-dihydropyridine-3,5-dicarboxylate hydrochloride], the “Other in vitro effects” value is reported as 0.
With COC(=O)C1=C(C)N(C)C(CN2CCc3ccccc3C2)=C(C(=O)OC)C1c1ccc(C(F)(F)F)cc1.Cl (centres unmarked) [Example 49, Dimethyl 2-(1,2,3,4-tetrahydro-1H-isoquinolin-2-ylmethyl)-1,6-dimethyl-4-(4-trifluoromethylphenyl)-1,4-dihydropyridine-3,5-dicarboxylate hydrochloride] the “Other in vitro effects” value was 0.

Test system: not given
Experiment: not given
COC(=O)C1=C(C)N(C)C(CCN2CCCC2)=C(C(=O)OC)C1c1ccc(C(F)(F)F)cc1.Cl (centres unmarked) showed a melting point of 218 to 219 °C.
COC(=O)C1=C(CCN2CCN(C)CC2)N(C)C(CCN2CCN(C)CC2)=C(C(=O)OC)C1c1ccccc1Cl (as salt: hydrochloride) showed a melting point of 210 to 215 °C.
Work on COC(=O)C1=C(C)N(C)C(C)=C(C(=O)OC)C1c1ccc(Cl)cc1 [Example 4, Dimethyl 1,2,6-trimethyl-4-(4-chlorophenyl)-1,4-dihydropyridine-3,5-dicarboxylate] yielded a melting point of 179 to 180 °C.
With COC(=O)C1=C(CCN(C)C)N(C)C(CCN(C)C)=C(C(=O)OC)C1c1ccccc1Cl (as salt: hydrochloride) [Example 22, Dimethyl 4-(2-chorophenyl)-2,6-bis-(2-dimethylaminoethyl)-1-methyl-1,4-dihydropyridine-3,5-dicarboxylate dihydrochloride] the melting point was 241 to 245 °C.
In the case of COC(=O)C1=C(C)N(C)C(CN2CCCCC2)=C(C(=O)OC)C1c1ccc(C(F)(F)F)cc1.Cl (centres unmarked), the melting point is reported as 190 to 192 °C.
In the case of COC(=O)C1=C(C)N(C)C(CN2CCCC2)=C(C(=O)OC)C1c1ccc(C(F)(F)F)cc1.Cl (centres unmarked), the melting point is reported as 182 to 185 °C.
COC(=O)C1=C(CCN(C)C)N(C)C(CCN2CCc3cc(OC)c(OC)cc3C2)=C(C(=O)OC)C1c1ccc(C(F)(F)F)cc1 (centres unmarked) (as salt: hydrochloride) [Example 42, Dimethyl 2-[2-(6,7-dimethoxy-1,2,3,4-tetrahydroisoquinolin-2-yl)-ethyl]-6-(2-dimethylamino-ethyl)-1-methyl-4-(4-trifluoromethylphenyl)-1,4-dihydropyridine-3,5-dicarboxylate dihydrochloride] gave a melting point of 210 to 211 °C.
In the case of COC(=O)C1=C(C)N(C)C(CCN2CCOCC2)=C(C(=O)OC)C1c1ccccc1Cl.Cl (centres unmarked), the melting point is reported as 171 to 173 °C.
COC(=O)C1=C(C)N(C)C(C)=C(C(=O)OC)C1c1ccc(C)cc1 [Example 5, Dimethyl 1,2,6-trimethyl-4-(4-methylphenyl)-1,4-dihydropyridine-3,5-dicarboxylate] gave a melting point of 176 to 178 °C.
Compound COC(=O)C1=C(C#N)N(C)C(CCN(C)C)=C(C(=O)OC)C1c1ccc(C(F)(F)F)cc1.Cl (centres unmarked) has a melting point of 215 to 216 °C.
COC(=O)C1=C(C)N(C)C(C)=C(C(=O)OC)C1c1ccc(OC)cc1 [Example 6, Dimethyl 1,2,6-trimethyl-4-(4-methoxyphenyl)-1,4-dihydropyridine-3,5-dicarboxylate] gave a melting point of 163 to 164 °C.
With COC(=O)C1=C(C#N)N(C)C(CN2CCCC2)=C(C(=O)OC)C1c1ccc(C(F)(F)F)cc1.Cl (centres unmarked) the melting point was 173 to 175 °C.
COC(=O)C1=C(C)N(C)C(C)=C(C(=O)OC(C)(C)C)C1c1ccc(C(F)(F)F)cc1 (centres unmarked) [Example 29, 1,2,6-Trimethyl-4-(4-trifluoromethylphenyl)-1,4-dihydropyridine-3,5-dicarboxylic acid 3-tert-butyl ester 5-methyl ester] gave a melting point of 128 to 130 °C.
With COC(=O)C1=C(C)N(C)C(C)=C(C(=O)OC(C)C)C1c1ccc(C(F)(F)F)cc1 (centres unmarked) [Example 28, 1,2,6-Trimethyl-4-(4-trifluoromethylphenyl)-1,4-dihydropyridine-3,5-dicarboxylic acid 3-isopropyl ester 5-methyl ester] the melting point was 92 to 94 °C.
Work on COC(=O)C1=C(C)N(C)C(C)=C(C(=O)OC)C1c1ccccc1Cl [Example 18, Dimethyl 4-(2-chlorophenyl)-1,2,6-trimethyl-1,4-dihydropyridine-3,5-dicarboxylate] yielded a melting point of 154 to 155 °C.
COC(=O)C1=C(C)N(C)C(C)=C(C(=O)O)C1c1ccc(C(F)(F)F)cc1 (centres unmarked) [Example 35, 1,2,6-Trimethyl-4-(4-trifluoromethylphenyl)-1,4-dihydropyridine-3,5-dicarboxylic acid monomethyl ester] gave a melting point of 150 to 155 °C.
In the case of COC(=O)C1=C(CCN2CCCC2)N(C)C(CCN2CCCC2)=C(C(=O)OC)C1c1ccccc1Cl (as salt: hydrochloride) [Example 19, Dimethyl 4-(2-chlorophenyl)-1-methyl-2,6-bis-(2-pyrrolidin-1-yl-ethyl)-1,4-dihydropyridine-3,5-dicarboxylate dihydrochloride], the melting point is reported as 188 to 193 °C.
COC(=O)C1=C(CCN(C)C)N(C)C(CCN2CCOCC2)=C(C(=O)OC)C1c1ccc(C(F)(F)F)cc1 (centres unmarked) (as salt: hydrochloride) [Example 31, Dimethyl 2-(2-dimethylamino-ethyl)-1-methyl-6-(2-morpholin-1-yl-ethyl)-4-(4-trifluoromethylphenyl)-1,4-dihydropyridine-3,5-dicarboxylate dihydrochloride] gave a melting point of 247 to 248 °C.
With COC(=O)C1=C(CCN(C)C)N(C)C(CCN(C)C)=C(C(=O)OC)C1c1cc(F)cc(F)c1 (as salt: hydrochloride) [Example 25, Dimethyl 4-(3,5-Difluorophenyl)-2,6-bis-(2-dimethylaminoethyl)-1-methyl-1,4-dihydropyridine-3,5-dicarboxylate dihydrochloride] the melting point was 261 to 265 °C.
Compound COC(=O)C1=C(CCN(C)C)N(C)C(CCN2CCCCC2)=C(C(=O)OC)C1c1ccc(C(F)(F)F)cc1 (centres unmarked) (as salt: hydrochloride) [Example 30, Dimethyl 2-(2-dimethylamino-ethyl)-1-methyl-6-(2-piperidin-1-yl-ethyl)-4-(4-trifluoromethylphenyl)-1,4-dihydropyridine-3,5-dicarboxylate dihydrochloride] has a melting point of 247 to 249 °C.
Compound COC(=O)C1=C(C)N(C)C(CCN2CCc3ccccc3CC2)=C(C(=O)OC)C1c1ccc(C(F)(F)F)cc1.O=C(O)/C=C/C(=O)O (centres unmarked) has a melting point of 202 to 203 °C.
For COC(=O)C1=C(C)N(C)C(CN2CCc3ccccc3C2)=C(C(=O)OC)C1c1ccc(C(F)(F)F)cc1.Cl (centres unmarked) [Example 49, Dimethyl 2-(1,2,3,4-tetrahydro-1H-isoquinolin-2-ylmethyl)-1,6-dimethyl-4-(4-trifluoromethylphenyl)-1,4-dihydropyridine-3,5-dicarboxylate hydrochloride], the melting point was 175 to 177 °C.
Compound COC(=O)C1=C(C)N(C)C(CCN2CCOCC2)=C(C(=O)OC)C1c1ccc(C(F)(F)F)cc1.Cl (centres unmarked) has a melting point of 188 to 193 °C.
Compound CC1=C(C(=O)O)C(c2ccc(C(F)(F)F)cc2)C(C(=O)O)=C(C)N1C [Example 36, 1,2,6-Trimethyl-4-(4-trifluoromethylphenyl)-1,4-dihydropyridine-3,5-dicarboxylic acid] has a melting point of 152 to 153 °C.
Compound COC(=O)C1=C(CCN2CCN(C)CC2)N(C)C(CCN2CCN(C)CC2)=C(C(=O)OC)C1c1ccc(C(F)(F)F)cc1 (as salt: hydrochloride) [Example 16, Dimethyl 1-methyl-2,6-bis-[2-(4-methyl-piperazin-1-yl)-ethyl]-4-(4-trifluoromethylphenyl)-1,4-dihydropyridine-3,5-dicarboxylate hydrochloride] has a melting point of 195 to 200 °C.
